Results on two compounds are retold here after patent publication US8334403B1, “C-lysine conjugates as pH-controlled, light-activated reagents for double stranded DNA cleavage and associated methods” (Florida State University Research Foundation, Inc., priority 2005, dated 2012).

Series [1] relates to three human clear cell renal cell carcinoma (RCC) cell lines (UMRC3, UMRC6, 786-O). The experiment in a line: RCC cell proliferation assay, three cell lines together. Format: cell-based. To be noted: 10 μM. Here is the method: FIG. 23 provides the results of cell proliferation assays using three different RCC cell lines: (a) UMRC3, (b) UMRC6 and (c) 786-O, and compounds I-5; RCC cells were resuspended in media and treated with UV radiation (350 nm) for 10 minutes with and without indicated compounds; control cells were exposed to the indicated compound 1-5 at final concentration of 10 μM; cell numbers determined after 72 hours as described in the SI Section;
The ability of compounds 1-5 to inhibit cell proliferation in three human clear cell renal cell carcinoma (RCC) cell lines was tested in the dark and under photoactivation (FIG. 23). No difference was detected in the control experiments between cells not exposed to UV versus those that were exposed to UV at 350 nm for 10 minutes in any of the three RCC cell lines tested (FIG. 23 A, B & C; first two columns).

A further series concerns pBR322 plasmid DNA. Description: Plasmid relaxation assay: DNA photocleavage of supercoiled plasmid under UV irradiation. The settings on record: pH 6, 15 μM, 10 min of UV irradiation. It counts as biochemical. As for the experimental part: General information. ^1H, ^13C and ^19F NMR were collected on a Varian Gemini 300 MHz NMR spectrometer and a Bruker 300 MHz NMR spectrometer. Mass spectrometry data was collected on a Jeol JMS-600H. UV spectra were recorded on a Shimadzu UV-2100. Fluorescence spectra were obtained with SPEX FluoMax spectrofluorimeter using right-angle geometry. pH was adjusted with AB 15 plus pH meter (Accument) after standardization at 25° C. All buffers were prepared and pH-adjusted at room temperature (25° C.). Plasmid DNA Photocleavage. pBR322 plasmid DNA (4,361 b/p; from BioLabs Inc., 1 μg/μL solution in 10 mM Tris-HCl (pH 8.0), and 1 mM EDTA buffer) was diluted to a concentration of 0.01 μg/μL. The solution containing cleavage agent, DNA (30 μM/bp) in 20 mM sodium phosphate buffer was incubated for 1 hour at 30° C. Samples were placed on ice at a distance of 20 cm from 200 W Hg—Xe lamp (Spectra-Physics, Laser & Photonics Oriel Instruments with long pass filter with 324 nm cut-off wavelength). Electrophoretic Analysis. The gel electrophoresis was carried out in 1×TBE buffer at 80 V using Miligel FisherBiotech Horizontal Electrophoresis System. All gels were run on 1% agarose slab gels. Before loading, the DNA samples were mixed with 0.33 volume of tracking dye containing bromophenol blue (0.25%) and glycerol (30%) in water. After staining in ethidium bromide solution (2 μg/ml) for 1 hour, the gel was washed with water and pictures were taken with Polaroid 3000ISO type 667 film. The relative quantities of the supercoiled, nicked, and linear DNA were calculated by integrating the “area” of each spot by the image analyzer software Total/Lab (Nonlinear Dynamics Ltd., UK). The amount of supercoiled DNA was multiplied by factor of 1.4 to account for reduced ethidium bromide intercalation into supercoiled DNA. pH titration by ^1H-NMR. pH* of compound 8 (3 mM) solution in D2O containing 0.05 wt % 3-(trimethylsilyl)propionic-2,2,3,3-d4 acid, sodium salt (TSP-d4) was adjusted with 10 wt % DCI and NaOD in D2O at 25° C. under argon purged condition. Spectrometric determinations of pKa. pH of 10 μM of compound solution in H2O was adjusted with 10, 100 mM HCl (aq) and NaOH (aq) solution under argon purged condition. Excitation wavelength was 330 nm and polymethacrylate fluorimeter cuvettes were used. Absorbance and fluorescence titration with DNA. The concentrations of calf thymus DNA stock solution was determined spectophotometrically using the following molar absorptovity values: 1.32×10^4 M^−1 cm^−1 (per base pair) at 260 nm. All experiments were done in 20 mM sodium phosphate buffer at 25° C. and polymethacrylate fluorimeter cuvettes were used. The same amount of DNA was added to both sample and reference cuvettes during UV/Vis titration. Determination of excited state lifetimes. The concentration of compound solution was 10 μM in 20 mM sodium phosphate buffer. The photoluminescence lifetime measurements were conducted by exciting the samples with the output of a Nd:VO—4 (Spectra-Physics Vanguard, 2 W, 532 nm, 76 MHz, 10 ps) pumped R6G dye laser (Coherent 702-1). The output of the dye laser (600 nm, Rhodamine 6G) was cavity dumped at 1.9 MHz and frequency doubled using a BBO crystal to excite the fluorophore (the excitation wavelength used was 290 nm). Samples were excited with <1 mW power and the emission was collected at right angles onto a Chromex S3 500 is 0.5 m imaging monochromator with a 50 g/mm grating and 0.5 nm resolution. Output of the monochromator is focused into a Hamamatsu C5680 streak camera operating at a 20 ns window for the fluorophore. Intensity analysis was carried out by integrating the spectral profile in time on the streak camera. Lifetime analysis over 6-7 lifetimes of the fluorophore was conducted by binning the photoluminescence intensity collected on the streak camera over a 20 nm spectral window at the centroid value of the emission of the fluorophore. Ethidium bromide displacement. […]

Series [2] can be described thus: Fluorometric (emission) determination of pKa. Format: physicochemical. To be noted: emission; α-amino group (4, 6), ε-amino group (7). As for the experimental part:
(§1) General information. ^1H, ^13C and ^19F NMR were collected on a Varian Gemini 300 MHz NMR spectrometer and a Bruker 300 MHz NMR spectrometer. Mass spectrometry data was collected on a Jeol JMS-600H. UV spectra were recorded on a Shimadzu UV-2100. Fluorescence spectra were obtained with SPEX FluoMax spectrofluorimeter using right-angle geometry. pH was adjusted with AB 15 plus pH meter (Accument) after standardization at 25° C. All buffers were prepared and pH-adjusted at room temperature (25° C.). Plasmid DNA Photocleavage. pBR322 plasmid DNA (4,361 b/p; from BioLabs Inc., 1 μg/μL solution in 10 mM Tris-HCl (pH 8.0), and 1 mM EDTA buffer) was diluted to a concentration of 0.01 μg/μL. The solution containing cleavage agent, DNA (30 μM/bp) in 20 mM sodium phosphate buffer was incubated for 1 hour at 30° C. Samples were placed on ice at a distance of 20 cm from 200 W Hg—Xe lamp (Spectra-Physics, Laser & Photonics Oriel Instruments with long pass filter with 324 nm cut-off wavelength). Electrophoretic Analysis. The gel electrophoresis was carried out in 1×TBE buffer at 80 V using Miligel FisherBiotech Horizontal Electrophoresis System. All gels were run on 1% agarose slab gels. Before loading, the DNA samples were mixed with 0.33 volume of tracking dye containing bromophenol blue (0.25%) and glycerol (30%) in water. After staining in ethidium bromide solution (2 μg/ml) for 1 hour, the gel was washed with water and pictures were taken with Polaroid 3000ISO type 667 film. The relative quantities of the supercoiled, nicked, and linear DNA were calculated by integrating the “area” of each spot by the image analyzer software Total/Lab (Nonlinear Dynamics Ltd., UK). The amount of supercoiled DNA was multiplied by factor of 1.4 to account for reduced ethidium bromide intercalation into supercoiled DNA. pH titration by ^1H-NMR. pH* of compound 8 (3 mM) solution in D2O containing 0.05 wt % 3-(trimethylsilyl)propionic-2,2,3,3-d4 acid, sodium salt (TSP-d4) was adjusted with 10 wt % DCI and NaOD in D2O at 25° C. under argon purged condition. Spectrometric determinations of pKa. pH of 10 μM of compound solution in H2O was adjusted with 10, 100 mM HCl (aq) and NaOH (aq) solution under argon purged condition. Excitation wavelength was 330 nm and polymethacrylate fluorimeter cuvettes were used. Absorbance and fluorescence titration with DNA. The concentrations of calf thymus DNA stock solution was determined spectophotometrically using the following molar absorptovity values: 1.32×10^4 M^−1 cm^−1 (per base pair) at 260 nm. All experiments were done in 20 mM sodium phosphate buffer at 25° C. and polymethacrylate fluorimeter cuvettes were used. The same amount of DNA was added to both sample and reference cuvettes during UV/Vis titration. Determination of excited state lifetimes. The concentration of compound solution was 10 μM in 20 mM sodium phosphate buffer. The photoluminescence lifetime measurements were conducted by exciting the samples with the output of a Nd:VO—4 (Spectra-Physics Vanguard, 2 W, 532 nm, 76 MHz, 10 ps) pumped R6G dye laser (Coherent 702-1). The output of the dye laser (600 nm, Rhodamine 6G) was cavity dumped at 1.9 MHz and frequency doubled using a BBO crystal to excite the fluorophore (the excitation wavelength used was 290 nm). Samples were excited with <1 mW power and the emission was collected at right angles onto a Chromex S3 500 is 0.5 m imaging monochromator with a 50 g/mm grating and 0.5 nm resolution. […]

Series [3] can be described thus: UV-absorption titration determination of pKa. Format: physicochemical. The settings on record: absorption; α-amino group (4, 6), ε-amino group (7). As for the experimental part:
as §1

Turning to `Cl.Cl.NCCCC[C@H](N)C(=O)Nc1ccc(C#Cc2ccccc2)cc1` [Compound 5, (S)-2,6-Diaminohexanoic acid [4-(phenylethynyl)-phenyl]-amide dihydrochloride], the “cytotoxicity in the dark” value in series [1] is recorded as “considerably less cytotoxic in the dark”.

As to `C[C@H](N)C(=O)Nc1ccc(C#Cc2c(F)c(F)nc(F)c2F)cc1.Cl` [Compound 6, (S)-2-Amino-propanoic acid [4-(2,3,5,6-tetrafluoro-pyridin-4-ylethynyl)-phenyl]-amide hydrochloride], in the series on pBR322 plasmid DNA, the ds-cleavage entry is on record as “do not produce any ds-cleavage”. Also, the figures for the pKa1 in series [2] and in series [3] were 7.6 and 7.4, respectively.
